Test results published in patent US8883847B2, “Compositions and methods of treatment using modulators of motoneuron diseases” (KineMed, Inc., priority 2006, dated 2014).

Tested on: SOD1-G93A TGN mice
Experiment: Noscapine-MK801 treatment of SOD1-G93A TGN mice: gait/stride length, disease onset, mortality
Assay type: in vivo, mouse
Conditions: for Mortality: age at death; for Onset of motor deficits: age at onset
Protocol: FIG. 6. Noscapine-MK801 combination delays onset of disease and death in SOD1-G93A TGN mice. The one and two-drug treatments were started at an early (i.e., presymptomatic) stage of disease (7 weeks). SOD1-G93A TGN mice were treated 3 times a week with noscapine (0.2 mg/kg body weight) and/or MK-801 (12 mg/kg body weight/day). Mice received noscapine intraperitoneally and MK-801 in drinking water.
Female SOD-1 G93A TGN mice were obtained from Jackson laboratory (strain #2726). The controls were matched litter mates. Treatment groups were three per group. Noscapine was injected intraperitoneal in the thigh 3 times/week (0.2 mg/kg i.p.) and MK801 was administered continuously in drinking water (12 mg/kg/d). Gait analysis was done by the method of Wooley et al., Muscle Nerve 2005 32(1):43-50 and Carter et al. J. Neurosci., 19(8):3248-3257, hereby incorporated by reference in their entirety.
For clinical assessment endpoints scoring was selected as follows:
GROUP CLASSIFICATION: Presymptomatic
Clinical signs: Full mobility and no observable difference in behavior from age-matched controls (Gait or stride length analysis).
GROUP CLASSIFICATION: Onset
Clinical signs: Abnormal Gait or stride length analysis and hindlimb weakness: >40% reduction in stride length vs. age-matched littermates.
GROUP CLASSIFICATION: End Stage (euthanization)
Clinical signs: noticeable and complete hind limb paralysis (which in this strain occurs more on one limb than the other) and inability to right themselves in 5 sec time window. This stage starts usually as the mice are failing the gait analysis test and enter the End stage. Therefore, Transgenic SOD1-G93A TGN mice are euthanized at the onset of noticeable and complete hindlimb paralysis and inability to right themselves in 5 sec time window.

Which Mortality does the source give for `C[C@]12N[C@H](Cc3ccccc31)c1ccccc12` [MK-801, Dizocilipine] here?
The Mortality was 112 to 119 days.

What about the “Onset of motor deficits” value of the same molecule?
Its value is 105 to 112 days.

How did the Mortality turn out when `COc1ccc2c(c1OC)C(=O)O[C@@H]2[C@H]1c2c(cc3c(c2OC)OCO3)CCN1C` [Noscapine, noscapine] was run?
Its Mortality is 112 to 119 days.

What about the “Onset of motor deficits” value of the same molecule?
The value was 98 to 105 days.
